Laboratory results published in publication PMC11242173 (International Journal of Molecular Sciences, 2024).
≈ marks a conversion by molar mass, not a printed value.

Tests used:
hCoV-OC43 = assay: Focus forming reduction assay (FFRA), hCoV-OC43 in HCT-8 cells; settings: for EC50 / EC90: hCoV-OC43, FFRA in HCT-8 cells, treatment before, during and after infection, 72 h p.i.; for SI (ratio of CC50 to EC50): hCoV-OC43, HCT-8 cells
HCT-8 cells = assay: Cytotoxicity (cell viability) assay in HCT-8 cells; type: cell-based, human; settings: uninfected HCT-8 cells, 72 h
Description: HCT-8, MRC5, A549, and Calu-3 cells seeded on 96-well plates 24 h before the assay were exposed to increasing concentrations of compounds or the vehicle as a control. Cytotoxicity was evaluated after 48 h for MRC5 and Calu-3 cells or after 72 h for A549 and HCT-8 cells, using the CellTiter-Glo assay (Promega, Milan, Italy) or the ATPlite assay (PerkinElmer, Milan, Italy). The cytotoxicity of the tested compounds was expressed as cytotoxic concentration (CC50).

SMILES | EC50 (hCoV-OC43) [µg/mL] | EC90 (hCoV-OC43) [µg/mL] | SI (ratio of CC50 to EC50) (hCoV-OC43) | CC50 (HCT-8 cells) [µg/mL]
Oc1cc(O)c2c(c1)O[C@H](c1ccc(O)c(O)c1)[C@H](O)[C@H]2c1c(O)cc(O)c2c1O[C@H](c1ccc(O)c(O)c1)[C@H](O)C2 [PAC B2, PAC-B2] | 142.41 ± 8.93 (≈ 246 µM) | >400 | >2.81 | >400
Oc1cc(O)c2c(c1)O[C@H](c1ccc(O)c(O)c1)[C@@H](O)[C@@H]2c1c(O)cc(O)c2c1O[C@H](c1ccc(O)c(O)c1)[C@@H](O)C2 [PAC B3, PAC-B3] | 134.92 ± 4.14 (≈ 233 µM) | >400 | >2.96 | >400
Oc1cc(O)c2c(c1)O[C@@]1(c3ccc(O)c(O)c3)Oc3cc(O)c4c(c3[C@@H]2[C@H]1O)O[C@H](c1ccc(O)c(O)c1)[C@H](O)C4 [PAC A2, PAC-A2] | 6.58 ± 0.40 (≈ 11.4 µM) | 100.74 ± 0.66 (≈ 175 µM) | >60.79 | >400
Oc1cc(O)c2c(c1)OC1(c3ccc(O)c(O)c3)Oc3cc(O)c4c(c3C2C1O)OC(c1ccc(O)c(O)c1)C(O)C4 (centres unmarked) [PAC A1, PAC-A1] | 4.10 ± 0.71 (≈ 7.11 µM) | 139.35 ± 2.06 (≈ 242 µM) | >97.56 | >400
Oc1cc(O)c2c(c1)O[C@H](c1ccc(O)c(O)c1)[C@H](O)[C@H]2c1c(O)cc(O)c2c1O[C@H](c1ccc(O)c(O)c1)[C@@H](O)C2 [PAC B1, PAC-B1] | 167.02 ± 6.51 (≈ 289 µM) | >400 | >2.39 | >400
